Results: patent US20250215029A1 (Recludix Pharma, Inc., priority 2022, published 2025)
Read-outs that look alike come from different tables or passages of the source.

Experiments:
pY705-STAT3 in PBMC = target: T1, pY705-STAT3 in PBMC (Homo sapiens, UniProt P40763); test: MSD-pSTAT-PBMC Assay (pSTAT3, IL-6 stimulated); assay type: cell-based; conditions: PBMC, compound 3 hrs, then 10 ng/mL IL-6 for 10 min
T1 construct: Cryopreserved Peripheral Blood Mononuclear Cells (PBMC) are from AllCells; host or cells: cryopreserved PBMC
T1 sequence (P40763 whole entry): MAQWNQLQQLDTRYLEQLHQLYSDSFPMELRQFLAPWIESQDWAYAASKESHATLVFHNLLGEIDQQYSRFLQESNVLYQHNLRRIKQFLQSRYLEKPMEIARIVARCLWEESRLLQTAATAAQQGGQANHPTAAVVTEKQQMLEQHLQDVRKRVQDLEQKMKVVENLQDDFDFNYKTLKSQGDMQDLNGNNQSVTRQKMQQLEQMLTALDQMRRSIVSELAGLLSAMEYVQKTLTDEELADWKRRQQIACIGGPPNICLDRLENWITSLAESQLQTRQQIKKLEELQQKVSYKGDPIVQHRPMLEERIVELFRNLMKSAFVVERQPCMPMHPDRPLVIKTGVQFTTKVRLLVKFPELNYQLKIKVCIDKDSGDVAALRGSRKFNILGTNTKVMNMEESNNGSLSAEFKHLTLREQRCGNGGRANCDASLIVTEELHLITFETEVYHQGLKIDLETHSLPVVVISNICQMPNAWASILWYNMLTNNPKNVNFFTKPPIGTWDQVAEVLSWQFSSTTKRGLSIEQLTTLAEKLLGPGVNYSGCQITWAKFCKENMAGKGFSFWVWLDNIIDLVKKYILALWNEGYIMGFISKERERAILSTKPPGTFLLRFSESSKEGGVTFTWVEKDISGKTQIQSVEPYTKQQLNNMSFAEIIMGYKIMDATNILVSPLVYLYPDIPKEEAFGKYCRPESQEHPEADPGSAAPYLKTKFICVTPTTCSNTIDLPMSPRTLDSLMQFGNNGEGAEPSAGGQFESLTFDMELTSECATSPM
Outline: (§1)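 Inhibition of cytokine-induced STAT phosphorylation was measured in recovered human PBMC after 3 hrs compound exposure and a 10 min IL-4 (1 ng/mL) or IL-6 (10 ng/mL) challenge. MSD detection of pY641-STAT6 or pY705-STAT3 yielded IC50 values.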

pY641-STAT6 in PBMC = target: T2, pY641-STAT6 in PBMC (Homo sapiens, UniProt P42226); test: MSD-pSTAT-PBMC Assay (pSTAT6, IL-4 stimulated); assay type: cell-based; conditions: compound 3 hrs, then 1 ng/mL IL-4 for 10 min
T2 construct: Cryopreserved Peripheral Blood Mononuclear Cells (PBMC) are from AllCells; host or cells: cryopreserved PBMC
T2 sequence (P42226 1-847): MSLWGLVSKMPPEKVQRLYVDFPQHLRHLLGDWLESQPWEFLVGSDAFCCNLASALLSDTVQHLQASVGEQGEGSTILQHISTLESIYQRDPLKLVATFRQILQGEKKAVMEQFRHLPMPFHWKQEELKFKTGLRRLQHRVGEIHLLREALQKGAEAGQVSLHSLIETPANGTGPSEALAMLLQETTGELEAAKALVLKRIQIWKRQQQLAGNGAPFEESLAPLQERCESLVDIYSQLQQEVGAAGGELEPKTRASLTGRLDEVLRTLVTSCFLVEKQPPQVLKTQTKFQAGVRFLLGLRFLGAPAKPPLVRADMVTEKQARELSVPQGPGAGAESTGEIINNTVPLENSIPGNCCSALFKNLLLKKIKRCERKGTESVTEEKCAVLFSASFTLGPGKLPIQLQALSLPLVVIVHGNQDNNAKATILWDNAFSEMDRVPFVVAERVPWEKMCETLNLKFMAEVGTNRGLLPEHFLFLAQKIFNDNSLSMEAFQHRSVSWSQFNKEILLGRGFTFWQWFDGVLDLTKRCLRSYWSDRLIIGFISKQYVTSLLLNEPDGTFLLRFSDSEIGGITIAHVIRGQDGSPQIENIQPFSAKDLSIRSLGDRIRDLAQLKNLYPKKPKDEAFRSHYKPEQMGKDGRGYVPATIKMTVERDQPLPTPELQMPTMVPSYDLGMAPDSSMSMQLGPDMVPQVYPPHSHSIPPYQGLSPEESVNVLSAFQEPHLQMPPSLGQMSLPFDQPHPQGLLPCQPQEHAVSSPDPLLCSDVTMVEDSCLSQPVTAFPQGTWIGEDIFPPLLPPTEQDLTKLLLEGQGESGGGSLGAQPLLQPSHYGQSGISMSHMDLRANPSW
Outline: as §1

[1] = PBMC, Table 1114, read-out: pSTAT6

IC50 (pY705-STAT3 in PBMC; Table 1114, read-out: pSTAT3) [nM]	IC50 (pY641-STAT6 in PBMC; [1]) [nM]	Molecule	IC50 (pY705-STAT3 in PBMC; Table 115, read-out: STAT3) [nM]	IC50 (pY641-STAT6 in PBMC; STAT6, PBMC, Table 115) [nM]	further results
100 to 1000	< 100	CN(C(=O)[C@@H]1CC[C@@H]2CCCC[C@H](NC(=O)c3cc4cc(C(F)(F)P(=O)(OCOC(=O)C(C)(C)C)OCOC(=O)C(C)(C)C)ccc4[nH]3)C(=O)N21)c1ccccc1 [Compound 142, (((difluoro(2-(((3S,6S,10aS)-3-(methyl(phenyl)carbamoyl)-5-oxodecahydro-pyrrolo[1,2-a]azocin-6-yl)carbamoyl)-1H-indol-5-yl)methyl)phosphoryl)bis(oxy)) bis(methylene) bis(2,2-dimethylpropanoate)]			
		CCCOC(=O)[C@H](C)NP(=O)(Oc1ccccc1)C(F)c1ccc2sc(C(=O)N[C@H]3CCCC[C@H]4CC[C@@H](C(=O)N5C[C@@H](c6cccc(OC)c6)[C@H](C#N)C56CC6)N4C3=O)cc2c1 (single isomer, unassigned) [Compound 326]	> 3000	< 100	
		CCCOC(=O)[C@H](C)NP(=O)(Oc1ccccc1)C(F)(F)c1ccc2ccc(C(=O)N[C@H]3CCCC[C@H]4CC[C@@H](C(=O)N5CC(c6ccccc6)CC56CC6)N4C3=O)cc2c1 (stereo partly drawn) [Compound 403, propyl ((difluoro(7-(((3S,6S,10aS)-5-oxo-3-(6-phenyl-4-azaspiro[2.4]heptane-4-carbonyl)decahydropyrrolo[1,2-a]azocin-6-yl)carbamoyl)naphthalen-2-yl)methyl)(phenoxy)phosphoryl)-L-alaninate]	> 3000	100 to 1000	
		CC(C)CC(=O)SCCOP(=O)(OCOC(=O)OC1COC1)C(F)(F)c1ccc2sc(C(=O)N[C@H]3CCCC[C@H]4CC[C@@H](C(=O)N5C[C@H](c6cc[nH]c(=O)c6)[C@@H](C#N)C5)N4C3=O)cc2c1 (single isomer, unassigned) [Compound 1093]	> 3000		IC50 (pY641-STAT6 in PBMC; PBMC, Table 115, read-out: STAT6): 100 to 1000 nM
		CCCOC(=O)[C@H](C)NP(=O)(Cc1ccc2sc(C(=O)N[C@H]3CCC[C@H]4CC[C@@H](C(=O)N5CCC(c6cccnc6)C5)N4C3=O)cc2c1)Oc1ccccc1 (stereo partly drawn) [Compound 252, propyl (((2-(((3S,6S,9aS)-5-oxo-3-(3-(pyridin-3-yl)pyrrolidine-1-carbonyl)octahydro-1H-pyrrolo[1,2-a]azepin-6-yl)carbamoyl)benzo [b]thiophen-5-yl)methyl)(phenoxy)phosphoryl)-L-alaninate]	1000 to 3000	100 to 1000	
		CCCOC(=O)[C@H](C)NP(=O)(Cc1ccc2sc(C(=O)N[C@H]3CCCC[C@H]4CC[C@@H](C(=O)N5CCC(c6cccnc6)C5)N4C3=O)cc2c1)Oc1ccccc1 (stereo partly drawn) [Compound 253, propyl (((2-(((3S,6S,10aS)-5-oxo-3-(3-(pyridin-3-yl)pyrrolidine-1-carbonyl)decahydropyrrolo[1,2-a]azocin-6-yl)carbamoyl)benzo [b]thiophen-5-yl)methyl)(phenoxy)phosphoryl)-L-alaninate]	> 3000	100 to 1000	
< 100	> 3000	CC(C)(C)C(=O)OCOP(=O)(OCOC(=O)C(C)(C)C)C(F)(F)c1ccc2sc(C(=O)N[C@H]3CCC[C@H]4CC[C@@H](C(=O)N5CC(c6cccnc6)C5)N4C3=O)cc2c1 [Compound 189, (((difluoro(2-(((3S,6S,9aS)-5-oxo-3-(3-(pyridin-3-yl)azetidine-1-carbonyl)octahydro-1H-pyrrolo[1,2-a]azepin-6-yl)carbamoyl)benzo[b]thiophen-5-yl)methyl)phosphoryl)bis (oxy))bis (methylene) bis(2,2-dimethyl-propanoate)]			
100 to 1000	< 100	CC(C)(C)C(=O)OCOP(=O)(OCOC(=O)C(C)(C)C)C(F)(F)c1ccc2sc(C(=O)N[C@H]3CCC[C@H]4CCC[C@@H](C(=O)N5CC(C#N)C(c6ccccc6)C5)N4C3=O)cc2c1 (stereo partly drawn) [Compound 170, ((((2-(((4S,7S,10aS)-4-(rel-(trans)-3-cyano-4-phenylpyrrolidine-1-carbonyl)-6-oxodecahydropyrido [1,2-a]azepin-7-yl)carbamoyl)benzo[b]thiophen-5-yl)difluoromethyl)phosphoryl)bis(oxy)) bis(methylene) bis(2,2-dimethylpropanoate)]			
		CCCOC(=O)[C@H](C)N[P@](=O)(Oc1ccccc1)[C@H](F)c1ccc2sc(C(=O)N[C@H]3CCC[C@H]4CC[C@@H](C(=O)N5CC(c6cnccc6N6CCOCC6)C5)N4C3=O)cc2c1 (single isomer, unassigned) [Compound 1045]	< 100	> 3000	
> 3000	> 3000	CC(C)CC(=O)SCCCCOP(=O)(OCCCCSC(=O)CC(C)C)C(F)(F)c1ccc2sc(C(=O)N[C@H]3CCCC[C@H]4CC[C@@H](C(=O)N5CC(C#N)C(c6ccccc6)C5)N4C3=O)cc2c1 (single isomer, unassigned) [Compound 153, S,S′-(((((2-(((3S,6S,10aS)-3-((3S,4R or 3R,4S)-3-cyano-4-phenylpyrrolidine-1-carbonyl)-5-oxodecahydro-pyrrolo[1,2-a]azocin-6-yl)carbamoyl)benzo[b]thiophen-5-yl)difluoromethyl)phosphoryl)bis (oxy))bis(butane-4,1-diyl)) bis(3-methylbutane thioate)]			
		CCCOC(=O)[C@H](C)NP(=O)(Oc1ccccc1)C(F)(F)c1ccc2ccc(C(=O)N[C@H]3CCCC[C@H]4CC[C@@H](C(=O)N5C[C@H](c6cc[nH]c(=O)c6)CC56CC6)N4C3=O)cc2c1 (stereo partly drawn) [Compound 419, propyl ((difluoro(7-(((3S,6S,10aS)-5-oxo-3-((S)-6-(2-oxo-1,2-dihydropyridin-4-yl)-4-azaspiro[2.4]heptane-4-carbonyl)decahydropyrrolo[1,2-a]azocin-6-yl)carbamoyl)naphthalen-2-yl)methyl)(phenoxy)phosphoryl)-L-alaninate]	> 3000	100 to 1000	

Molecule	IC50 (pY705-STAT3 in PBMC; Table 1114, read-out: pSTAT3) [nM]	IC50 (pY641-STAT6 in PBMC; [1]) [nM]	IC50 (pY705-STAT3 in PBMC; Table 115, read-out: STAT3) [nM]	IC50 (pY641-STAT6 in PBMC; STAT6, PBMC, Table 115) [nM]	further results
CC(C)(C)C(=O)SCCOP(=O)(Oc1ccccc1)C(F)(F)c1ccc2sc(C(=O)N[C@H]3CCCC[C@H]4CC[C@@H](C(=O)N5C[C@H](c6ccccc6)[C@@H](C#N)C5)N4C3=O)cc2c1 (single isomer, unassigned) [Compound 133, S-(2-((((2-(((3S,6S,10aS)-3-((3S,4R or 3R,4S)-3-cyano-4-phenylpyrrolidine-1-carbonyl)-5-oxodecahydro-pyrrolo[1,2-a]azocin-6-yl)carbamoyl)benzo[b]thiophen-5-yl)difluoromethyl) (phenoxy)phosphoryl)oxy)ethyl)-2,2-dimethylpropane-thioate]	> 3000				IC50 (pY641-STAT6 in PBMC; pSTAT6, PBMC, Table 1114): 100 to 1000 nM
S,S′- ((((difluoro(2- (((3S,6S,9aS)-5-oxo-3- (3-(pyridin-3- yl)azetidine-1- carbonyl)octahydro- 1H-pyrrolo[1,2-a] azepin-6-yl) carbamoyl)benzo[b] thiophen-5-yl)methyl) phosphoryl)bis(oxy)) bis(ethane-2,1-diyl)) bis(2,2- dimethylpropanethioate) [Compound 175]	< 100	100 to 1000			
S-(2- (((difluoro(2- (((3S,6S,9aS)-3-(3-((S- methylsulfonimidoyl) methyl)azetidine-1- carbonyl)-5- oxooctahydro-1H- pyrrolo[1,2-a]azepin-6- yl)carbamoyl)benzo[b] thiophen-5-yl)methyl) (((3-methylbutanoyl) thio)methoxy) phosphoryl)oxy)ethyl) 3-methylbutane thioate [Compound 178]	100 to 1000	> 3000			
